Assay results published in ChEMBL document CHEMBL4138316, “Optimization of Isothiazolo[4,3- b]pyridine-Based Inhibitors of Cyclin G Associated Kinase (GAK) with Broad-Spectrum Antiviral Activity” (J Med Chem, 2018).
In brackets after ≈: the same amount, converted by molar mass. Activity calls are given as the source filed them. No cut-off for these calls is given here.

How the values were obtained:
[1] = Aqueous solubility in PBS buffer at pH 7.4 at 100 uM after 1 hr by LC-MS/MS analysis; format: physicochemical; conditions: pH 7.4, 1 h
Huh-7 [2] = assay: Cytotoxicity against human HuH7 cells after 48 hrs by Alamar Blue assay; format: cell-based; conditions: huh-7, 48 h
Ebolavirus = assay: Antiviral activity against Ebolavirus infected in human HuH7 cells after 48 hrs by immunofluorescence assay; format: functional, cell-based; conditions: for EC90: Orthoebolavirus, Huh-7, 48 h
[3] = Apparent permeability cross basolateral to apical side in MDCK-MDR1 cells at 5 uM after 90 mins by LC-MS/MS analysis; format: ADME, cell-based, Canis lupus familiaris; conditions: dog, mdck-mdr1, 1.5 h
[4] = Apparent permeability cross apical to basolateral side in MDCK-MDR1 cells at 5 uM after 90 mins by LC-MS/MS analysis; format: ADME, cell-based, Canis lupus familiaris; conditions: dog, mdck-mdr1, 1.5 h
dengue virus type 2 [5] = assay: Antiviral activity against DENV2 New Guinea C infected in human HuH7 cells after 48 hrs by luciferase reporter gene assay; format: functional, organism-based; conditions: Huh-7, 48 h
[6] = target: T1, Cyclin-G-associated kinase (Homo sapiens, UniProt O14976)
T1 sequence (O14976 whole entry): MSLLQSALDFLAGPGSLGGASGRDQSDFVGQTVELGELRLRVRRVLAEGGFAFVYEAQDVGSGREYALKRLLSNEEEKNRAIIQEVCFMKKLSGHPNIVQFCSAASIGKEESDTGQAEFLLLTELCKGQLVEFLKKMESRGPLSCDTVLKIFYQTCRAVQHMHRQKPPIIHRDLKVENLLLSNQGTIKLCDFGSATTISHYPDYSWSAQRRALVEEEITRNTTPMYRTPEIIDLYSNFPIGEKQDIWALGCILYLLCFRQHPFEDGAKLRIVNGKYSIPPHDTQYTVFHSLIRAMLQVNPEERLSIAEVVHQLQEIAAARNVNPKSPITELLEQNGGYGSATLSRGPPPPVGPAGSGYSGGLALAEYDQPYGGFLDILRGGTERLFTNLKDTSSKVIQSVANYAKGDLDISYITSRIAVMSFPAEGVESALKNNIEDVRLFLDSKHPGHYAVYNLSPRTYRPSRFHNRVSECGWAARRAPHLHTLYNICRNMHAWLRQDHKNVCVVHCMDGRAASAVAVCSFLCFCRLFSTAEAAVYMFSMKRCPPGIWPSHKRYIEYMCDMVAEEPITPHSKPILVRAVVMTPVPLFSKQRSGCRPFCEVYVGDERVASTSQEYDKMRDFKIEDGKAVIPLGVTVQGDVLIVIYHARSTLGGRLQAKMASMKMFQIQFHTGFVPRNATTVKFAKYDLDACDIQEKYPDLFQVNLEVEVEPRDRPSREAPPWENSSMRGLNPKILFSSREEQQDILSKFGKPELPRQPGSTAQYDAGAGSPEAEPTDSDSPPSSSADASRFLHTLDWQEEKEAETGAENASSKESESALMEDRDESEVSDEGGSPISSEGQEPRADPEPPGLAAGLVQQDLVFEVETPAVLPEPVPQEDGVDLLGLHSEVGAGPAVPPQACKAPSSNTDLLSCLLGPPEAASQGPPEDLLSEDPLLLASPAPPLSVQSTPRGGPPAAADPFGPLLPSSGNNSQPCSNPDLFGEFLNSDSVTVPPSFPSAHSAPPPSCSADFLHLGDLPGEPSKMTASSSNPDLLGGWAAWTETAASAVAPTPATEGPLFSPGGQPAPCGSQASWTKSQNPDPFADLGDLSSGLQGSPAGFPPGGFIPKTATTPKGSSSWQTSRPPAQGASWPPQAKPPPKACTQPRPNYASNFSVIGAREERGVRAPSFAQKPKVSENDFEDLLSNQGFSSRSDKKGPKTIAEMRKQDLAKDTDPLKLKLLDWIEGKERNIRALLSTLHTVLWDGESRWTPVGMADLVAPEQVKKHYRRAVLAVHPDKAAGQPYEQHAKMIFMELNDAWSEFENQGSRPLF

Huh-7 [7] = assay: Cytotoxicity against human HuH7 cells after 48 hrs by CellTiter-Glo assay; format: cell-based; conditions: huh-7, 48 h
Dengue virus = assay: Antiviral activity against Dengue virus infected in doxycycline-inducible GAK (unkown origin) transfected TREx293 cells up to 20 uM after 72 hrs by luciferase reporter gene assay; format: functional, organism-based
dengue virus type 2 [8] = assay: Antiviral activity against DENV2 16881 infected in human MDDC after 72 hrs by plaque assay; format: functional, organism-based; conditions: Dengue virus, 16881, 72 h
[9] = Cytotoxicity against human MDDC cells after 72 hrs by Alamar Blue assay; format: cell-based
Chikungunya virus = assay: Antiviral activity against Chikungunya virus AF15561 infected in African green monkey Vero cells preincubated for 48 hrs followed by viral infection measured after 48 hrs by plaque assay; format: functional, organism-based
[10] = target: Tyrosine-protein kinase ABL1 (Homo sapiens) (UniProt P00519); assay: Inhibition of wild-type human non-phosphorylated ABL1 (S229 to K512 residues) expressed in mammalian expression system at 10 uM by ATP-site competition binding assay based KinomeScan assay relative to control
[11] = target: T2, Aurora kinase C (Homo sapiens) (UniProt Q9UQB9); assay: Inhibition of wild-type human full length AURKC (M1 to S275 residues) expressed in bacterial expression system at 10 uM by ATP-site competition binding assay based KinomeScan assay relative to control
T2 sequence (whole entry): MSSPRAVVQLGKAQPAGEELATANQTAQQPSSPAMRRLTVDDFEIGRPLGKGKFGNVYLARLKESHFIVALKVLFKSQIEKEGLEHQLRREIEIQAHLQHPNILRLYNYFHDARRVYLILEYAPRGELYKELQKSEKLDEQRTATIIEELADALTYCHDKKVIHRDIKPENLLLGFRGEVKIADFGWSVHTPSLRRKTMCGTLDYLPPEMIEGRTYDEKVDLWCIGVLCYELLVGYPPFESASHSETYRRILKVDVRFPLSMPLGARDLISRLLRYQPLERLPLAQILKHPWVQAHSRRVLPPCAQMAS

[12] = target: Ephrin type-A receptor 7 (Homo sapiens) (UniProt Q15375); assay: Inhibition of wild-type human partial length EPHA7 (Y608 to S912 residues) expressed in bacterial expression system at 10 uM by ATP-site competition binding assay based KinomeScan assay relative to control
[13] = target: Receptor-type tyrosine-protein kinase FLT3 (Homo sapiens) (UniProt P36888); assay: Inhibition of wild-type human partial length FLT3 (V592 to Y969 residues) expressed in bacterial expression system at 10 uM by ATP-site competition binding assay based KinomeScan assay relative to control
[14] = target: Mast/stem cell growth factor receptor Kit (Homo sapiens, UniProt P10721); assay: Inhibition of wild-type human partial length KIT (I571 to D952 residues) expressed in bacterial expression system at 10 uM by ATP-site competition binding assay based KinomeScan assay relative to control
[15] = target: T3, Dual specificity mitogen-activated protein kinase kinase 5 (Homo sapiens) (UniProt Q13163); assay: Inhibition of wild-type human partial length MAP2K5 (L98 to P448 residues) expressed in mammalian expression system at 10 uM by ATP-site competition binding assay based KinomeScan assay relative to control
T3 sequence (whole entry): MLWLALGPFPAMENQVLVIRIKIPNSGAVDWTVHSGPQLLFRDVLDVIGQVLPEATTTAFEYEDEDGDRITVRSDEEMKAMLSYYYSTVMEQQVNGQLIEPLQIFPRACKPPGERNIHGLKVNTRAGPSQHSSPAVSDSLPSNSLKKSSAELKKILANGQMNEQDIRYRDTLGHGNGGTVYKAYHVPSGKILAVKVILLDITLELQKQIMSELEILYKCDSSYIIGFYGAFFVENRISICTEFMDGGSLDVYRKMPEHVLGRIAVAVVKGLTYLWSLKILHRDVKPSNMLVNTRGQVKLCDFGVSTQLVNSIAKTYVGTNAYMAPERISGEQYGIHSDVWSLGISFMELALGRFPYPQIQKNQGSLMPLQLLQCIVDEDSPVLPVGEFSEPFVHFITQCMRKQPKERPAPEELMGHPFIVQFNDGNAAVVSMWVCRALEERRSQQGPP

[16] = target: Mitogen-activated protein kinase 14 (Homo sapiens) (UniProt Q16539); assay: Inhibition of wild-type human full length MAPK14 (M1 to S360 residues) expressed in bacterial expression system at 10 uM by ATP-site competition binding assay based KinomeScan assay relative to control
[17] = target: Platelet-derived growth factor receptor beta (Homo sapiens) (UniProt P09619); assay: Inhibition of wild-type human partial length PDGFRB (V582 to Y1009 residues) expressed in bacterial expression system at 10 uM by ATP-site competition binding assay based KinomeScan assay relative to control
Sequence of Platelet-derived growth factor receptor beta (Homo sapiens) (P09619 whole entry, the tested form may be a part): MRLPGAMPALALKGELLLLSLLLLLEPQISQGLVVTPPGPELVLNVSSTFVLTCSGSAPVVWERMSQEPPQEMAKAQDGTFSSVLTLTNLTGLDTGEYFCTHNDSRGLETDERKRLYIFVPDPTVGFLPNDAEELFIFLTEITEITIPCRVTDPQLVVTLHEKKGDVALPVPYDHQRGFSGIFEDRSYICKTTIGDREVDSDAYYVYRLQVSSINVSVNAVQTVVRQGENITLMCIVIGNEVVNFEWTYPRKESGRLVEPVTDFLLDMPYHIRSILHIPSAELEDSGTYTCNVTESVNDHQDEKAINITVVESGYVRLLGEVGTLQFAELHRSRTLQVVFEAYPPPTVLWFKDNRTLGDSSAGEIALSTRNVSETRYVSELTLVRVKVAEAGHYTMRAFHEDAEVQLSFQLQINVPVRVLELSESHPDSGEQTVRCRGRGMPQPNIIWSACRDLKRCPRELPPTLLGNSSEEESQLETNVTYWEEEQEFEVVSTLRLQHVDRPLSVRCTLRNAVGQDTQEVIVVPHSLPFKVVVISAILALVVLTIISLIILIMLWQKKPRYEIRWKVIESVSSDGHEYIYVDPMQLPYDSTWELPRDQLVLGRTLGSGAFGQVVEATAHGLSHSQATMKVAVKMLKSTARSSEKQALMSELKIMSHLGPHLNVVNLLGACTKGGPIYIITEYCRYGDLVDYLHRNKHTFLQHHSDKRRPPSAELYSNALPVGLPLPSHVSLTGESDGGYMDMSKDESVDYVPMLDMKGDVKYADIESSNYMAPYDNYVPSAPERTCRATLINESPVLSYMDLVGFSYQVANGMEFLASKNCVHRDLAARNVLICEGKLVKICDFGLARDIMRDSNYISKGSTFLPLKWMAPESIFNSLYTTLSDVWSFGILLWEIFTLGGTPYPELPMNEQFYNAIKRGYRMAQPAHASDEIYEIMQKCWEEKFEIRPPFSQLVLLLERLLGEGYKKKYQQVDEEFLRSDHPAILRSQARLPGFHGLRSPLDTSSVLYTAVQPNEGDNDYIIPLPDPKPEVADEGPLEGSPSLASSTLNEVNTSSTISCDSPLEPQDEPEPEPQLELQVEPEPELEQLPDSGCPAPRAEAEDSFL

Sequence of Ephrin type-A receptor 7 (Homo sapiens) (Q15375 28-998 limits assumed): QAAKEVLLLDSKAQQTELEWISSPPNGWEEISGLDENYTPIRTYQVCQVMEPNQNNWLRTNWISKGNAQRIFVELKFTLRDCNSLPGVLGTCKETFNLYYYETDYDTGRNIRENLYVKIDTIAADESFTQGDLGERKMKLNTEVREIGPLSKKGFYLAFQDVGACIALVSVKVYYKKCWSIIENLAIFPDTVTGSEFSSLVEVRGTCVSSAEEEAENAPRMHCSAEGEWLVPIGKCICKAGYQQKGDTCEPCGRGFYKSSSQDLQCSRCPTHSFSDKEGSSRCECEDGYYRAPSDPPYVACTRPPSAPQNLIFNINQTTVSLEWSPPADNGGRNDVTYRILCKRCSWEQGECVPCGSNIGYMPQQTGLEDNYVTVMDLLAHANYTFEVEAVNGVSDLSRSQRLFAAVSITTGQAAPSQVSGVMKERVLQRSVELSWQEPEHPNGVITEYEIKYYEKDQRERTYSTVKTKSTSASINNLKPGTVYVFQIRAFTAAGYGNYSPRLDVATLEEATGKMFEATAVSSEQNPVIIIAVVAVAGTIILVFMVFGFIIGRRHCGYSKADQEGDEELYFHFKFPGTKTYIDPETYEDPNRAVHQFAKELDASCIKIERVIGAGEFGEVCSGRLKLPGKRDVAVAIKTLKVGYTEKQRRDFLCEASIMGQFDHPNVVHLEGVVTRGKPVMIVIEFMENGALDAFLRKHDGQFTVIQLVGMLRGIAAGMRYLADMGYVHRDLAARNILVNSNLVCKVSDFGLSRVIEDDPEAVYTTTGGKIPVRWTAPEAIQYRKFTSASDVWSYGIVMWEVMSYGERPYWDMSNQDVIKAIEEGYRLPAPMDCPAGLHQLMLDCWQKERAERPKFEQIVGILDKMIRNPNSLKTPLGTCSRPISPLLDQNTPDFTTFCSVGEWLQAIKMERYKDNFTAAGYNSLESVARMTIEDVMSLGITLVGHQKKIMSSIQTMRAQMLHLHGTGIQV
Sequence of Tyrosine-protein kinase ABL1 (Homo sapiens) (P00519 whole entry, the tested form may be a part): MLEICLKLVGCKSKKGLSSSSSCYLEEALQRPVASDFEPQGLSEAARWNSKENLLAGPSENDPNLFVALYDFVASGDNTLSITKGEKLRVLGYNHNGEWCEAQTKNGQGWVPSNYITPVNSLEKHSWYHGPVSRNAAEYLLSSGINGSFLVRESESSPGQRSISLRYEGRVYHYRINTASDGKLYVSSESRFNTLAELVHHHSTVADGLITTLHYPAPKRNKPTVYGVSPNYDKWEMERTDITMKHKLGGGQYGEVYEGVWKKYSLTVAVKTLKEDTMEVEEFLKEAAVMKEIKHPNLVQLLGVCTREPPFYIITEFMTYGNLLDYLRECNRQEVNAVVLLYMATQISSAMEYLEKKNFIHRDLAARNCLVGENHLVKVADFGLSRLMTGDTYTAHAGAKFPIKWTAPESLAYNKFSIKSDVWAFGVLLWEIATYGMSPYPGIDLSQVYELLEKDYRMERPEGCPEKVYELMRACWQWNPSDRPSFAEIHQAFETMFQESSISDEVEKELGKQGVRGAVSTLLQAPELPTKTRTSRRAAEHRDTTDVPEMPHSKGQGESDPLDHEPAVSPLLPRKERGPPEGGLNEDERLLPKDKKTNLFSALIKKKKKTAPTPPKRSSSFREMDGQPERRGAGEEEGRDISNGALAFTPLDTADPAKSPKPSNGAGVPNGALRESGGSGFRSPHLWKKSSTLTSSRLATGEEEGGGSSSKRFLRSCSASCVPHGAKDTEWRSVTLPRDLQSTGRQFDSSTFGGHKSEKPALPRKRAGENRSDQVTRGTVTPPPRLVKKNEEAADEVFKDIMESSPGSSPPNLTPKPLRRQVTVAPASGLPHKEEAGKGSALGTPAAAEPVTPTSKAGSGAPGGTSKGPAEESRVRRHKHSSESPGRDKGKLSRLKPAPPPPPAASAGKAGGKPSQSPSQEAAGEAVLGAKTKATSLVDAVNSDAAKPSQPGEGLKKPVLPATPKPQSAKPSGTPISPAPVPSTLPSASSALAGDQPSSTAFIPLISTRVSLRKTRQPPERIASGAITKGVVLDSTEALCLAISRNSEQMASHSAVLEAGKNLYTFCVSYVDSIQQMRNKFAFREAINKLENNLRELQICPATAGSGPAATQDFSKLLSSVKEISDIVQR
Sequence of Mitogen-activated protein kinase 14 (Homo sapiens) (Q16539 whole entry, the tested form may be a part): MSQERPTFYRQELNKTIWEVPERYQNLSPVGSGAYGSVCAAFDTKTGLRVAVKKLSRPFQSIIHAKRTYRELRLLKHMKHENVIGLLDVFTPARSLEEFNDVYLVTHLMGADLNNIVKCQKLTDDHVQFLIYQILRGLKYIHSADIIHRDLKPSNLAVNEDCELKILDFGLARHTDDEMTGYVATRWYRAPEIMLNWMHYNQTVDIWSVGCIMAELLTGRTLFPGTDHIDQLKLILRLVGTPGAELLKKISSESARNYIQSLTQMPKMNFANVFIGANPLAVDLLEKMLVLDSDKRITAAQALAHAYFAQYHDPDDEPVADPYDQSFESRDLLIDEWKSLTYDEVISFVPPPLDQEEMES
Sequence of Receptor-type tyrosine-protein kinase FLT3 (Homo sapiens) (P36888 whole entry, the tested form may be a part): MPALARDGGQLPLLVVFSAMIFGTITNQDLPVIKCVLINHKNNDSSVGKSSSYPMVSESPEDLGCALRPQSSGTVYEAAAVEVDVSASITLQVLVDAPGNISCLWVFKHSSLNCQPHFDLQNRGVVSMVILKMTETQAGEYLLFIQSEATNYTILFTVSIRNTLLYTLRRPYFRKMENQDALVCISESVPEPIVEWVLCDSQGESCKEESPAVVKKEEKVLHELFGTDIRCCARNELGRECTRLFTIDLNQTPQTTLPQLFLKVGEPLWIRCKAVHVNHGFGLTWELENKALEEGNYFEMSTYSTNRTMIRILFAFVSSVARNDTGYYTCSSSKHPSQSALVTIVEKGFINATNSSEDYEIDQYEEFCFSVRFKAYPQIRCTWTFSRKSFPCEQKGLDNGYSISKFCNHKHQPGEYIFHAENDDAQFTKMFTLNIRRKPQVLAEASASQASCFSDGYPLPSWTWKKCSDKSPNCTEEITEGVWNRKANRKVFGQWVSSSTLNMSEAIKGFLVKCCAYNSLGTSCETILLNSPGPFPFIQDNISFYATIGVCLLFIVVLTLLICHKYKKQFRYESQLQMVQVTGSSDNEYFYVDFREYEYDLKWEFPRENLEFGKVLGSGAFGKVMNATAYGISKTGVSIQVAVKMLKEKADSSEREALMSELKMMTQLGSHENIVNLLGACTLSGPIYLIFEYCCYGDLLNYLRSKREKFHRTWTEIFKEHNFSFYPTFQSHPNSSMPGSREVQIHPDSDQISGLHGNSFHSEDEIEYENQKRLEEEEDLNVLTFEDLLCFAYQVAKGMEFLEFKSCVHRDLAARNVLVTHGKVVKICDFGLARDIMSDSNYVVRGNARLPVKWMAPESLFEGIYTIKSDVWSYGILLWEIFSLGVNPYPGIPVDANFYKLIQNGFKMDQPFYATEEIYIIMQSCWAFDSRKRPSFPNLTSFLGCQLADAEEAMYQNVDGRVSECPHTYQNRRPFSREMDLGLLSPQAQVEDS

## CC(C)NCC(O)COc1cccc2ccccc12 (stereo not drawn) [PROPRANOLOL]
[1]
  solubility: 117 µM (≈ 30.3 µg/mL)

## COc1cc(-c2cnc3c(N4CCO[C@@H](C)C4)snc3c2)ccc1N
Huh-7 [2]
  CC50: > 25 µM
Ebolavirus
  Activity: Dose-dependent effect

## COc1cc(-c2cnc3c(N4CCNC(=O)C4)snc3c2)ccc1N
[3]
  Papp: 43.48 ×10⁻⁶ cm/s
[4]
  Papp: 30.32 ×10⁻⁶ cm/s
Huh-7 [2]
  CC50: > 10 µM
[1]
  solubility: 51.3 µM (≈ 18.2 µg/mL)

## COc1cc(-c2cnc3c(N4CCC(C(N)=O)CC4)snc3c2)ccc1N
Huh-7 [2]
  CC50: > 10 µM

## COc1cc(-c2cnc3c(N4CC5(COC5)C4)snc3c2)ccc1N
Dengue virus type 2 [5]
  EC50: 7.12 µM
  EC90: > 10 µM
Huh-7 [2]
  CC50: > 10 µM
[6]
  Kd: 0.17 µM

## COc1cc(-c2cnc3c(N4CCC(N)CC4)snc3c2)ccc1N
Huh-7 [2]
  CC50: > 10 µM

## COc1cc(-c2cnc3c(N4CCO[C@H](C)C4)snc3c2)ccc1N
Huh-7 [2]
  CC50: 20.7 µM
Ebolavirus
  Activity: Dose-dependent effect
Huh-7 [7]
  CC50: > 10 µM

## COCCc1ccc(OCC(O)CNC(C)C)cc1 (stereo not drawn) [METOPROLOL]
[3]
  Papp: 30.66 ×10⁻⁶ cm/s
[4]
  Papp: 39.29 ×10⁻⁶ cm/s

## COc1cc(-c2cnc3c(N4CCOCC4)snc3c2)ccc1N
[3]
  Papp: 30.8 ×10⁻⁶ cm/s
[4]
  Papp: 45.45 ×10⁻⁶ cm/s
Dengue virus type 2 [5]
  EC50: 1.84 µM
  EC90: 8.05 µM
Ebolavirus
  EC90: 21.9 µM
Huh-7 [7]
  CC50: 11 µM
[1]
  solubility: 3.44 µM (≈ 1.18 µg/mL)

## COc1cc(-c2cnc3c(N4CCCOCC4)snc3c2)ccc1N
Huh-7 [2]
  CC50: > 10 µM

## COc1cc(-c2cnc3c(N4CCS(=O)(=O)CC4)snc3c2)ccc1N
Huh-7 [2]
  CC50: > 10 µM

## COc1cc(-c2cnc3c(N4CC5CCC(C4)O5)snc3c2)ccc1N
Huh-7 [2]
  CC50: > 10 µM

## COc1cc(-c2cnc3c(N4CCOC(C)(C)C4)snc3c2)ccc1N
Huh-7 [2]
  CC50: 4.14 µM

## COc1cc(-c2cnc3c(N4CCOC[C@H]4C)snc3c2)ccc1N
Huh-7 [2]
  CC50: > 10 µM

## COc1cc(-c2cnc3c(N4C[C@@H](C)O[C@H](C)C4)snc3c2)ccc1N (relative stereo)
Dengue virus type 2 [5]
  EC50: 0.7 µM
  EC90: 2.15 µM
Huh-7 [2]
  CC50: > 10 µM

## COc1cc(-c2cnc3c(N4CCCCC4)snc3c2)ccc1N
Huh-7 [2]
  CC50: > 10 µM

## COc1cc(-c2cnc3c(N4CCOC(C)C4)snc3c2)ccc1N (racemic)
Huh-7 [2]
  CC50: 21.5 µM
Ebolavirus
  Activity: Dose-dependent effect
Huh-7 [7]
  CC50: 9.4 µM

## COc1cc(-c2cnc3c(N4CCC(F)(F)CC4)snc3c2)ccc1N
Huh-7 [2]
  CC50: > 10 µM

## COc1cc(-c2cnc3c(N4CCC(C#N)CC4)snc3c2)ccc1N
Huh-7 [2]
  CC50: 2.09 µM

## COc1cc(-c2cnc3c(N4CCOC[C@@H]4C)snc3c2)ccc1N
Huh-7 [2]
  CC50: 6.32 µM

## COc1cc(-c2cnc3c(N4C[C@@H](C)O[C@@H](C)C4)snc3c2)ccc1N
[3]
  Papp: 18.28 ×10⁻⁶ cm/s
[4]
  Papp: 31.33 ×10⁻⁶ cm/s
Dengue virus
  Activity: inactive
Dengue virus type 2 [5]
  EC50: 0.82 µM
  EC90: 1.76 µM
Huh-7 [2]
  CC50: > 25 µM
Dengue virus type 2 [8]
  EC50: 3.54 µM
[9]
  CC50: > 20 µM
Ebolavirus
  EC90: 7.73 µM
Huh-7 [7]
  CC50: > 10 µM
Chikungunya virus
  Activity: Dose-dependent effect
[10]
  inhibition: > 90%
[11]
  inhibition: > 90%
[12]
  inhibition: > 90%
[13]
  inhibition: > 90%
[14]
  inhibition: > 90%
[15]
  inhibition: > 90%
[16]
  inhibition: > 90%
[17]
  inhibition: > 90%
[1]
  solubility: 0.52 µM (≈ 0.193 µg/mL)
[6]
  Kd: 0.089 µM

## COc1cc(-c2cnc3c(NC4CCOCC4)snc3c2)ccc1N
Huh-7 [2]
  CC50: > 20 µM

## COc1cc(-c2cnc3c(N4CCCC(C(N)=O)C4)snc3c2)ccc1N (stereo not drawn)
Huh-7 [2]
  CC50: > 10 µM
